Data set [1] is described as follows: logP determination by HPLC on a reversed-phase column (C18), EEC Directive 79/831 Annex V.A8. It counts as physicochemical. The conditions noted are these: for logP^a): HPLC-MS method a), Table I-T3; for log P: HPLC-MS, reversed-phase column (C18).
The subject of data set [2] is Boophilus microplus. In words: Boophilus microplus - injection test. To be noted: application rate 20 μg/animal; injected into engorged adult female ticks; laying of fertile eggs, after 7 days. It counts as in vivo. The procedure: Boophilus microplus—Injection Test
(§1) Solvent: dimethyl sulphoxide
To produce an appropriate active ingredient formulation, 10 mg of active ingredient are mixed with 0.5 ml of solvent and the concentrate is diluted with solvent to the desired concentration.
1 μl of the active ingredient solution is injected into the abdomen of 5 engorged adult female cattle ticks (Boophilus microplus). The animals are transferred into dishes and kept in a climate-controlled room.
Efficacy is assessed after 7 days by laying of fertile eggs. Eggs which are not visibly fertile are stored in a climate-controlled cabinet until the larvae hatch after about 42 days. An efficacy of 100% means that none of the ticks has laid any fertile eggs; 0% means that all the eggs are fertile.

Data set [3] deals with Ctenocephalides felis. Briefly: Ctenocephalides felis - oral test. Type of data set: in vivo. The conditions noted are these: application rate 100 ppm in citrated cattle blood; adult fleas; kill after 2 days. On the procedure:
Ctenocephalides felis—Oral Test
as §1
For the purpose of producing an appropriate active ingredient formulation, 10 mg of active ingredient are mixed with 0.5 ml of dimethyl sulphoxide. Dilution with citrated cattle blood gives the desired concentration.
About 20 unfed adult cat fleas (Ctenocephalides felis) are placed into a chamber which is closed at the top and bottom with gauze. A metal cylinder whose bottom end is closed with parafilm is placed onto the chamber. The cylinder contains the blood/active ingredient preparation, which can be imbibed by the fleas through the parafilm membrane.
After 2 days, the kill in % is determined. 100% means that all of the fleas have been killed; 0% means that none of the fleas have been killed.

Data set [4] concerns Lucilia cuprina. Briefly: Lucilia cuprina test. Type of data set: in vivo. The conditions noted are these: application rate 100 ppm; L1 larvae in minced horsemeat; kill after 2 days. On the procedure: as §1
(§2) To produce an appropriate active ingredient formulation, 10 mg of active ingredient are mixed with 0.5 ml of dimethyl sulphoxide, and the concentrate is diluted with water to the desired concentration.
About 20 L1 larvae of the Australian sheep blowfly (Lucilia cuprina) are transferred into a test vessel containing minced horsemeat and the active ingredient preparation of the desired concentration.
After 2 days, the kill in % is determined. 100% means that all the larvae have been killed; 0% means that none of the larvae have been killed.

For data set [5], the system named is Ctenocephalides felis. Briefly: Ctenocephalides felis - in vitro contact tests with adult cat fleas. Type of data set: in vivo. The conditions noted are these: application rate 5 μg/cm^2 (=500 g/ha), after 48 h (dead or moribund). The procedure:
Ctenocephalides felis—In Vitro Contact Tests with Adult Cat Fleas
For the coating of the test tubes, 9 mg of active ingredient are first dissolved in 1 ml of acetone p.a. and then diluted to the desired concentration with acetone p.a. 250 μl of the solution are distributed homogeneously on the inner walls and base of a 25 ml test tube by turning and rocking on an orbital shaker (rocking rotation at 30 rpm for 2 h). With 900 ppm active ingredient solution and internal surface area 44.7 cm^2, given homogeneous distribution, an area-based dose of 5 μg/cm^2 is achieved.
After the solvent has evaporated off, the tubes are populated with 5-10 adult cat fleas (Ctenocephalides felis), sealed with a perforated plastic lid and incubated in a horizontal position at room temperature and ambient humidity. After 48 h, efficacy is determined. To this end, the test tubes are stood upright and the fleas are knocked to the base of the tube. Fleas which remain motionless at the base or move in an uncoordinated manner are considered to be dead or moribund.
100% efficacy means that all the fleas were dead or moribund. 0% efficacy means that no fleas were harmed.

For data set [6], the system named is Musca domestica. In words: Musca domestica test. To be noted: adult houseflies, kill after 2 days. It counts as in vivo. On the procedure: as §1, §2
Vessels containing a sponge treated with sugar solution and the active ingredient formulation of the desired concentration are populated with 10 adult houseflies (Musca domestica).
After 2 days, the kill in % is determined. 100% means that all of the flies have been killed; 0% means that none of the flies have been killed.

Each structure is given as a SMILES string.

With `Cc1cc(C(F)(C(F)(F)F)C(F)(F)F)cc(C)c1-n1cc(-c2cccc(C(=O)NC3CC3)c2F)cn1` [I-T3-9], the “logP^a)” value in data set [1] was found to be 4.3. For the same compound, the efficacy in data set [2], in data set [3], in data set [4] and in data set [5] was 100% throughout.

In the case of `Cc1cc(C(F)(C(F)(F)F)C(F)(F)F)cc(C)c1-n1cc(-c2cc(C(=O)NC3(C#N)CC3)c(Cl)cc2F)cn1` [I-T3-17], in data set [1], the “logP^a)” value is listed as 4.4. Further, the efficacy is on record as 100% in data set [2], 95% in data set [3], 100% in data set [4] and 100% in data set [5].

Consider `O=C(NC1CC1)c1cc(-c2cnn(-c3ccc(C(F)(C(F)(F)F)C(F)(F)F)cc3OC(F)(F)F)c2)ccc1Cl` [I-T3-35], for which the “logP^a)” value in data set [1] turned out to be 4.7. In addition, the efficacy is on record as 100% in data set [2], 100% in data set [3], 80% in data set [6] (application rate 4 ppm) and 100% in data set [4].

Consider `O=C(NCC(F)(F)F)c1cc(-c2cnn(-c3c(Cl)cc(C(F)(C(F)(F)F)C(F)(F)F)cc3C(F)(F)F)c2)ccc1Cl` [I-T3-58], for which the “logP^a)” value in data set [1] worked out at 4.7. Further, the efficacy in data set [2], in data set [3], in data set [6] (application rate 100 ppm) and in data set [4] was 100% throughout.

In the case of `N#CC1(NC(=O)c2cc(-c3cnn(-c4c(F)cc(C(F)(C(F)(F)F)C(F)(F)F)cc4F)c3)ccc2Cl)CC1` [I-T3-62], the “logP^a)” value in data set [1] was determined as 3.9. The efficacy in data set [2], in data set [3], in data set [6] (application rate 100 ppm) and in data set [4] was 100% each time.

With `Cc1cc(C(F)(C(F)(F)F)C(F)(F)F)cc(C)c1-n1cc(-c2ccc(Cl)c(C(=O)NC3(C#N)CC3)c2F)cn1` [I-T3-65], in data set [1], the “logP^a)” value is listed as 4.3. The efficacy in data set [2], in data set [3], in data set [6] (application rate 100 ppm) and in data set [4] was 100% in each case.

For `CCc1cc(C(F)(C(F)(F)F)C(F)(F)F)cc(C)c1-n1cc(-c2ccc(Cl)c(C(=O)NC3(C#N)CC3)c2F)cn1` [I-T3-66], the “logP^a)” value in data set [1] stood at 4.6. Also, the efficacy in data set [2] is 100%; in data set [3], 100%; in data set [6] (application rate 100 ppm), 80%; in data set [4], 100%.

As for `CCc1cc(C(F)(C(F)(F)F)C(F)(F)F)cc(C)c1-n1cc(-c2ccc(Cl)c(C(=O)NC3CC3)c2F)cn1` [I-T3-68], in data set [1], the “logP^a)” value is reported as 4.8. Besides, the efficacy in data set [2] is 100%; in data set [3], 100%; in data set [6] (application rate 100 ppm) it was 80%; in data set [4], 100%.

For the compound `O=C(NC1CC1)c1c(Cl)ccc(-c2cnn(-c3c(Cl)cc(C(F)(C(F)(F)F)C(F)(F)F)cc3Cl)c2)c1F` [I-T3-73], the “logP^a)” value in data set [1] worked out at 4.5. Moreover, the efficacy in data set [2], in data set [3], in data set [6] (application rate 100 ppm) and in data set [4] was 100% throughout.

On to `CCc1cc(C(F)(C(F)(F)F)C(F)(F)F)cc(C)c1-n1cc(-c2cncc(C(=O)NC3(C#N)CC3)c2)cn1` [I-T3-76], for which, in data set [1], the “logP^a)” value came to 3.4. Also, the efficacy came out at 100% in data set [2], 100% in data set [3], 90% in data set [6] (application rate 100 ppm) and 90% in data set [4].

In the case of `CCc1cc(C(F)(C(F)(F)F)C(F)(F)F)cc(C)c1-n1cc(-c2cncc(C(=O)NC3CC3)c2)cn1` [I-T3-77], the “logP^a)” value in data set [1] was 3.4. For the same compound, the efficacy in data set [2], in data set [3], in data set [6] (application rate 100 ppm) and in data set [4] was 100% in each case.

As for `CCc1cc(C(F)(C(F)(F)F)C(F)(F)F)ccc1-n1cc(-c2cncc(C(=O)NC3CC3)c2)cn1` [I-T3-79], the “logP^a)” value in data set [1] is listed as 3.3. Moreover, the efficacy in data set [2] is 100%; in data set [3], 95%; in data set [6] (application rate 100 ppm), 80%; in data set [4], 80%.

In the case of `N#CC1(NC(=O)c2cc(-c3cnn(-c4ccc(OC(F)(F)F)cc4Cl)c3)ccc2Cl)CC1` [I-T3-89], the “logP^a)” value in data set [1] is 3.5. Moreover, the efficacy in data set [2], in data set [3], in data set [6] (application rate 100 ppm) and in data set [4] was 100% each time.

In the case of `Cc1ncc(-c2cnn(-c3c(Cl)cc(C(F)(F)F)cc3Cl)c2)cc1C(=O)NC1CC1` [I-T3-127], the “log P” value in data set [1] was 2.5. The efficacy in data set [2] was found to be 100%; in data set [3], 100%; in data set [4], 90%; in data set [5] it was 100%.

As to `Cc1ncc(-c2cnn(-c3c(Cl)cc(C(F)(F)F)cc3Cl)c2)cc1C(=O)N(C)C1CC1` [I-T3-128], the “log P” value in data set [1] worked out at 2.8. Moreover, the efficacy in data set [2], in data set [3] and in data set [5] was 100% throughout.

As for `Cc1ncc(-c2cnn(-c3c(Cl)cc(C(F)(F)F)cc3Cl)c2)cc1C(=O)N(C)C1(C#N)CC1` [I-T3-132], the “log P” value in data set [1] is 2.9. For the same compound, the efficacy in data set [2], in data set [3] and in data set [5] was 100% throughout.

Turning to `COCCNc1ncc(-c2cnn(-c3c(Cl)cc(C(F)(C(F)(F)F)C(F)(F)F)cc3Cl)c2)cc1C(=O)NC1CC1` [I-T3-138], the “log P” value in data set [1] is recorded as 4.1. The compound also registered an efficacy in data set [5] of 100%.

For the compound `Cc1cc(C(F)(C(F)(F)F)C(F)(F)F)cc(C)c1-n1cc(-c2cnc(C3CC3)c(C(=O)NC3(C#N)CC3)c2)cn1` [I-T3-139], the “log P” value in data set [1] was found to be 4.1. Moreover, the efficacy in data set [2] stood at 100%; in data set [3] it was 100%; in data set [6] (application rate 100 ppm), 90%; in data set [4], 100%.

For the compound `COc1ncc(-c2cnn(-c3c(C)cc(C(F)(C(F)(F)F)C(F)(F)F)cc3C)c2)cc1C(=O)N(C)C1CC1` [I-T3-144], in data set [1], the “log P” value worked out at 4.4. In addition, the efficacy in data set [2] is given as 100%; in data set [3], 90%; in data set [6] (application rate 100 ppm), 100%; in data set [4], 100%.

For `CCNC(=O)c1cc(-c2cnn(-c3c(Cl)cc(C(F)(F)F)cc3Cl)c2)cnc1C` [I-T3-147], the “log P” value in data set [1] turned out to be 4.0. This compound displayed an efficacy in data set [5] of 100%.

As to `N#CC1(NC(=O)c2cc(-c3cnn(-c4ncc(C(F)(F)F)cc4C(F)(F)F)c3)ccc2Cl)CC1` [I-T3-149], the “log P” value in data set [1] is 3.5. Also, the efficacy in data set [2], in data set [3], in data set [6] (application rate 100 ppm) and in data set [4] was 100% in each case.

As to `O=C(NC1CC1)c1cc(-c2cnn(-c3ncc(C(F)(F)F)cc3C(F)(F)F)c2)ccc1Cl` [I-T3-150], in data set [1], the “log P” value is 3.6. The efficacy in data set [2], in data set [3], in data set [6] (application rate 100 ppm) and in data set [4] was 100% each time.

For `N#CC1(NC(=O)c2cc(-c3cnn(-c4ncc(C(F)(C(F)(F)F)C(F)(F)F)cc4Cl)c3)ccc2Cl)CC1` [I-T3-151], the “log P” value in data set [1] amounted to 4.0. Also, the efficacy in data set [2], in data set [3], in data set [6] (application rate 100 ppm) and in data set [4] was 100% throughout.

Compound `N#CC1(CNC(=O)c2cc(-c3cnn(-c4c(Cl)cc(C(F)(C(F)(F)F)C(F)(F)F)cc4C(F)(F)F)c3)ccc2Cl)CC1` [I-T3-199] came in with an efficacy in data set [5] of 100%.

These data come from patent US9758485B2, “Compounds for controlling arthropods” (priority 2013, dated 2017).
